Measured values taken from patent US7932262B2 (Novartis AG, priority 2006, dated 2011).

Tests used:
PDK1 kinase = biological target: T1, PDK1 kinase (Homo sapiens, UniProt O15530); assay: PDK1 Kinase Alpha Screen Assay; format: biochemical; settings: PDK1 Kinase Alpha Screen Assay; read-out: PDK1 IC50
T1 sequence (O15530 1-556): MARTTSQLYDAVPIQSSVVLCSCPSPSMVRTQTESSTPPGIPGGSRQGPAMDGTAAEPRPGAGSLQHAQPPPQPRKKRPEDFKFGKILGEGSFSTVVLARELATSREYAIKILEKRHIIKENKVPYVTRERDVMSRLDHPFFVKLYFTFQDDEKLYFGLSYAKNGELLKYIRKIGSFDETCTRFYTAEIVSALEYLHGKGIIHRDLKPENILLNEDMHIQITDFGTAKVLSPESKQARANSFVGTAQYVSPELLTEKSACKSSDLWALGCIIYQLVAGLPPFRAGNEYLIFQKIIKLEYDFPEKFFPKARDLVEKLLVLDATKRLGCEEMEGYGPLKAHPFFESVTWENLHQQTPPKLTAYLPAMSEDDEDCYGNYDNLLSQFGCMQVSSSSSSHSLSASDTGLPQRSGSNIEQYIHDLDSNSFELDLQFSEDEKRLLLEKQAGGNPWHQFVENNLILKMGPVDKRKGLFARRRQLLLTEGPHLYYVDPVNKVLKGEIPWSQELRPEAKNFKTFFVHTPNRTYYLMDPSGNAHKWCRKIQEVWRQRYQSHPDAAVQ
In short: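 PDK1, 10 uM ATP, 50 nM biotin-PDK1-4 peptide; 50 mM Tris pH 7.5, 10 mM MgCl2, 0.1% BSA, 0.01% Tween-20, 2 mM DTT, 2.5% DMSO; 3-18 h. EDTA stop; AlphaScreen, phospho-Ser/Thr antibody, overnight RT.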

A2780 cells = assay: Cell Proliferation Assay (Cell Titer Glo), A2780; format: cell-based; settings: Homo sapiens; cell proliferation, A2780 cells; read-out: CPEC50 A2780
In short: (§1)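 Following a 3-day compound exposure (37° C., 5% CO2) of A2780 or PC3MM cells plated at 1000 per well, viability was measured by Cell Titer Glo luminescence in fresh medium, read 10 min after reagent addition.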

PC3MM cells = assay: Cell Proliferation Assay (Cell Titer Glo), PC3MM; format: cell-based; settings: cell proliferation, PC3MM cells; read-out: CPEC50 PC3MM
In short: as §1

Row | Structure (SMILES) | IC50 (PDK1 kinase) [µM] | EC50 (A2780 cells) [µM] | EC50 (PC3MM cells) [µM]
1 | COCCNc1cc(-c2cccc3cnc(Nc4ccc(S(N)(=O)=O)cc4)nc23)ccn1 [Compound 745, 4-(8-(2-(2-methoxyethylamino)pyridin-4-yl)quinazolin-2-ylamino)benzenesulfonamide] | < 5 | < 5 | < 5
2 | CC(=O)NCCNc1cc(-c2cccc3cnc(Nc4ccc(S(N)(=O)=O)cc4)nc23)ccn1 [Compound 746, N-(2-(4-(2-(4-sulfamoylphenylamino)quinazolin-8-yl)pyridin-2-ylamino)ethyl)acetamide] | < 5 | 5 to 10 | < 5
3 | NS(=O)(=O)c1ccc(Nc2ncc3cccc(-c4ccnc(NCCN5CCCC5)c4)c3n2)cc1 [Compound 747, 4-(8-(2-(2-(pyrroIidin-1-yl)ethylamino)pyridin-4-yl)quinazolin-2-ylamino)benzenesulfonamide] | < 5 | < 5 | < 5
4 | NS(=O)(=O)c1ccc(Nc2ncc3cccc(-c4cnoc4)c3n2)cc1 [Compound 748, 4-(8-(isoxazol-4-yl)quinazolin-2-ylamino)benzenesulfonamide] | < 5 | < 5 | < 5
5 | NS(=O)(=O)c1ccc(Nc2ncc3cccc(-c4cn[nH]c4)c3n2)cc1 [Compound 751, 4-(8-(1H-pyrazol-yl)quinazolin-2-ylamino)benzenesulfonamide] | < 5 | < 5 | < 5
6 | NS(=O)(=O)c1ccc(Nc2ncc3cccc(-c4ccnc(N5CCOCC5)c4)c3n2)cc1 [Compound 752, 4-(8-(2-morpholinopyridin-4-yl)quinazolin-2-ylamino)benzenesulfonamide] | < 5 | < 5 | < 5
7 | CN1CCN(c2cc(-c3cccc4cnc(Nc5ccc(S(N)(=O)=O)cc5)nc34)ccn2)CC1 [Compound 753, 4-(8-(2-(4-methylpiperazin-1-yl)pyridin-4-yl)quinazolin-2-ylamino)benzenesulfonamide] | < 5 | < 5 | < 5
8 | NS(=O)(=O)c1ccc(Nc2ncc3cccc(-c4ccnc(N5CCS(=O)(=O)CC5)c4)c3n2)cc1 [Compound 754] | < 5 | < 5 | < 5
9 | NS(=O)(=O)c1ccc(Nc2ncc3cccc(-c4ccnc(N5CCNC(=O)C5)c4)c3n2)cc1 [Compound 755, 4-(8-(2-(3-oxopiperazin-1-yl)pyridin-4-yl)quinazolin-2-ylamino)benzenesulfonamide] | < 5 | < 5 | < 5
10 | Nc1cc(-c2cccc3cnc(Nc4ccc(S(N)(=O)=O)cc4)nc23)ccn1 [Compound 756, 4-(8-(2-aminopyridin-4-yl)quinazolin-2-ylamino)benzenesulfonamide] | < 5 | 5 to 10 | < 5
11 | NS(=O)(=O)c1ccc(Nc2ncc3cccc(-c4ccccc4)c3n2)cc1 [Compound 757, 4-(8-phenylquinazolin-2-ylamino)benzenesulfonamide] | < 5 | < 5 | < 5
12 | NC(=O)c1ccc(-c2ccc3cnc(Nc4ccc(S(N)(=O)=O)cc4)nc3c2)cc1F [Compound 759, 2-fluoro-4-(2-(4-sulfamoylphenylamino)quinazolin-7-yl)benzamide] | < 5 | 5 to 10 | < 5
13 | NS(=O)(=O)c1ccc(Nc2ncc3cccc(C(=O)N4CCCC4)c3n2)cc1 [Compound 760, 4-(8-(pyrrolidine-1-carbonyl)quinazolin-2-ylamino)benzenesulfonamide] | < 5 | 5 to 10 | < 5
14 | COCCNC(=O)c1cccc2cnc(Nc3ccc(S(N)(=O)=O)cc3)nc12 [Compound 761, N-(2-methoxyethyl)-2-(4-sulfamoylphenylamino)quinazoline-8-carboxamide] | < 5 | < 5 | 5 to 10
15 | NS(=O)(=O)c1ccc(Nc2ncc3cccc(C(=O)NCCN4CCCC4)c3n2)cc1 [Compound 762, N-(2-(pyrrolidin-1-yl)ethyl)-2-(4-sulfamoylphenylamino)quinazoline-8-carboxamide] | < 5 | < 5 | 5 to 10
16 | COCCN1CCN(C(=O)c2ccc3cnc(Nc4ccc(S(N)(=O)=O)cc4)nc3c2)CC1 [Compound 764, 4-(7-(4-(2-methoxyethyl)piperazine-1-carbonyl)quinazolin-2-ylamino)benzenesulfonamide] | 10 to 25 | 5 to 10 | 10 to 25

Row | Structure (SMILES) | IC50 (PDK1 kinase) [µM] | EC50 (A2780 cells) [µM] | EC50 (PC3MM cells) [µM]
17 | COc1cc(-c2cccc3cnc(Nc4ccc(S(N)(=O)=O)cc4)nc23)c(Cl)cn1 [Compound 765, 4-(8-(5-chloro-2-methoxypyridin-4-yl)quinazolin-2-ylamino)benzenesulfonamide] | < 5 | < 5 | < 5
18 | CC(C)N1CCN(C(=O)c2ccc3cnc(Nc4ccc(S(N)(=O)=O)cc4)nc3c2)CC1 [Compound 766, 4-(7-(4-isopropylpiperazine-1-carbonyl)quinazolin-2-ylamino)benzenesulfonamide] | < 5 | 5 to 10 | 10 to 25
19 | CN1CCC(NC(=O)c2ccc3cnc(Nc4ccc(S(N)(=O)=O)cc4)nc3c2)CC1 [Compound 767, N-(1-methylpiperidin-4-yl)-2-(4-sulfamoylphenylamino)quinazoline-7-carboxamide] | < 5 | 5 to 10 | < 5
20 | NS(=O)(=O)c1ccc(Nc2ncc3cccc(C(=O)N4CCOCC4)c3n2)cc1 [Compound 768, 4-(8-(morpholine-4-cartbonyl)quinazolin-2-ylamino)benzenesulfonamide] | 5 to 10 | 5 to 10 | 5 to 10
21 | CN1CCN(C(=O)c2cccc3cnc(Nc4ccc(S(N)(=O)=O)cc4)nc23)CC1 [Compound 769, 4-(8-(4-methylpiperazine-1-carbonyl)quinazolin-2-ylamino)benzenesulfonamide] | < 5 | 5 to 10 | < 5
22 | NS(=O)(=O)c1ccc(Nc2ncc3cccc(C(=O)N4CCS(=O)(=O)CC4)c3n2)cc1 [Compound 770] | 10 to 25 | 5 to 10 | 10 to 25
23 | O=S(=O)(c1cccc(Nc2ncc3cccc(OC4CCNCC4)c3n2)c1)N1CCOCC1 [Compound 773, N-(3-(morpholinosulfonyl)phenyl)-8-(piperidin-4-yloxy)quinazolin-2-amine] | < 5 | < 5 | < 5
24 | CC(C)N1CCC(Oc2cccc3cnc(Nc4cccc(S(=O)(=O)N5CCOCC5)c4)nc23)CC1 [Compound 774, 8-(1-isopropylpiperidin-4-yloxy)-N-(3-(morpholinosulfonyl)phenyl)quinazolin-2-amine] | < 5 | < 5 | < 5
25 | CN1CCN(S(=O)(=O)c2cccc(Nc3ncc4cccc(OC5CCNCC5)c4n3)c2)CC1 [Compound 775, N-(3-(4-methylpiperazin-1-ylsulfonyl)phenyl)-8-(piperidin-4-yloxy)quinazolin-2-amine] | < 5 | 5 to 10 | < 5
26 | CC(C)NS(=O)(=O)c1cccc(Nc2ncc3cccc(OC4CCNCC4)c3n2)c1 [Compound 776, N-isopropyl-3-(8-(piperidin-4-yloxy)quinazolin-2-ylamino)benzenesulfonamide] | < 5 | < 5 | < 5
27 | COCCNS(=O)(=O)c1cccc(Nc2ncc3cccc(OC4CCNCC4)c3n2)c1 [Compound 777, N-(2-methoxyethyl)-3-(8-(piperidin-4-yloxy)quinazolin-2-ylamino)benzenesulfonamide] | < 5 | 5 to 10 | < 5
28 | CN1CCN(S(=O)(=O)c2ccc(Nc3ncc4cccc(OC5CCNCC5)c4n3)cc2)CC1 [Compound 778, N-(4-(4-methylpiperazin-1-ylsulfonyl)phenyl)-8-(piperidin-4-yloxy)quinazolin-2-amine] | < 5 | < 5 | < 5
29 | NC(=O)c1cccc(-c2ccc3cnc(Nc4ccc(S(N)(=O)=O)cc4)nc3c2)c1 [Compound 782] | < 5 | 5 to 10 | < 5
30 | NC(=O)c1ccc(-c2ccc3cnc(Nc4ccc(S(N)(=O)=O)cc4)nc3c2)cc1 [Compound 783, 4-(2-(4-sulfamoylphenylamino)quinazolin-7-yl)benzamide] | < 5 | 5 to 10 | < 5
31 | NS(=O)(=O)c1ccc(Nc2ncc3ccc(-c4cccc(S(N)(=O)=O)c4)cc3n2)cc1 [Compound 786, 3-(2-(4-sulfamoylphenylamino)quinazolin-7-yl)benzenesulfonamide] | < 5 | 5 to 10 | < 5
